Test results published in publication PMC10825133, “Repurposing proteasome inhibitors for improved treatment of triple-negative breast cancer” (Cell Death Discovery, 2024).

What was measured:
[1] = system: eight TNBC cell lines (BT-549, CAL-148, HCC1806, HCC38, HCC70, MDA-MB-436, MDA-MB-453, MDA-MB-468); experiment: Monotherapy drug screen, mean across the TNBC cell lines
Procedure: (§1) Eighteen pharmaceutical compounds were purchased from Selleckchem (Supplementary Table 2). Stock solutions were prepared using dimethyl sulfoxide (DMSO; Merck), physiological saline (sodium chloride 0.9%) or Milli-Q water, and stored at −80 °C. […] Matched concentration solvent vehicle controls were used for each drug concentration. The drug screens were performed in triplicate and repeated three (monotherapy) or two (combination therapy) times (Fig. 7).
(§2) The optimal seeding density per 96-well was determined for each cell line as previously described. The cells were seeded at a density of 4.0 × 10^3 to 7.5 × 10^3 (cell type dependent) in 96-well clear, flat-bottom microplates (Corning Life Sciences, Sigma-Aldrich) in 100 µl complete culture medium (Supplementary Table 1) and cultured for 24 h. Cell viability was determined using the resazurin assay in untreated cells at the time of plating (t = 0) and treated cells after 24 h drug treatment (Fig. 7). Percentage cell viability was calculated as 100% × (absorbance of treated cells – absorbance of background controls) / (absorbance of matched solvent vehicle controls – absorbance of background controls). The area under the curve (AUC), half-maximal inhibitory concentration (IC50), drug potency (GR50), and drug efficacy (GRmax) were determined for each compound using the GRmetrics (version 1.20.0) package in R. The monotherapy data were evaluated with the IDACombo (version 1.0.2) package in R to predict potential drug combinations (Table 1). SynergyFinder (version 3.2.10) package in R was used to identify synergistic drug combinations.
(§3) Eighteen pharmaceutical compounds were purchased from Selleckchem. […] The solubility of the compound was enhanced by pre-heating the solvent (lukewarm), if necessary. […] The stock solutions were stored at -80°C. […] Matched concentration solvent vehicle controls were used for each drug concentration. The drug screens were performed in triplicate and repeated three times for the monotherapies and twice for the combination treatments. The drug(s) and corresponding controls were plated in 96-well PCR plates (VWR) and stored at -20°C (Fig. 6). The drug plates were thawed, centrifuged (3000 rpm for 30s), and acclimatized to RT before the drugs were added to the cells. New drug plates were prepared for each drug screen.
(§4) The cells were seeded at a density of 4.0x10^3 to 7.5x10^3 (cell type-dependent) in 96-well clear, flat-bottom microplates (Corning Life Sciences, Sigma-Aldrich) in 100 µl culture medium supplemented with 10% FBS and cultured for 24h. Cell viability was determined using the resazurin assay after 24h drug treatment (Fig. 6). Percentage cell viability was calculated as 100% × (absorbance of treated cells – absorbance of background controls) / (absorbance of matched solvent vehicle controls – absorbance of background controls). Normalized growth rate inhibition (GR) was assessed using the absorbance of untreated cells after the time of plating (t = 0). […] For combination treatment, the monotherapy data were evaluated with the IDACombo (version 1.0.2)[20] package in R to predict potential drug combinations (Table 1). SynergyFinder (version 3.2.10)[21] package in R was used to identify synergistic drug combinations.

[2] = system: CAL-148 cells; experiment: Resazurin-based cell viability assay, monotherapy drug screen; set-up: species or system human; AUC: unit not given beside the values; conditions: CAL-148; for AUC: area under the dose response curve, 24 h; for GRmax: drug efficacy at highest tested dose (<0 cytotoxic, 0 cytostatic, >0 partial growth inhibition)
Procedure: as §1, §2, §3
Cell viability was measured daily (day 0 [plating day] to day 4) using 0.2 mg/ml resazurin solution prepared from resazurin sodium salt (Fisher Scientific) dissolved in sterile 1xPBS (ThermoFisher Scientific). Before use, the resazurin solution was brought to RT before 10 µl (10% of cell medium volume) was added to each 96-well and incubated for 4h at 37°C. […] The slope of the curve was used to determine the optimal seeding density, i.e., the highest seeding density with linear growth between days 1 and 3.
as §4

[3] = system: MDA-MB-436 cells; experiment: as above; set-up: species or system human; AUC: scale not given here; conditions: MDA-MB-436; for AUC: area under the dose response curve, 24 h; for GRmax: drug efficacy at highest tested dose (<0 cytotoxic, 0 cytostatic, >0 partial growth inhibition)
Procedure: (§5) Eighteen pharmaceutical compounds were purchased from Selleckchem. […] The stock solutions were stored at -80°C. […] New drug plates were prepared for each drug screen.
(§6) To determine the optimal seeding density and ensure that the cells were in the exponential phase during the duration of the experiment (approx. 52h), each cell line (BT-549, CAL-148, HCC1806, HCC38, HCC70, MCF-10A, MCF-7, MDA-MB-436, MDA-MB-453, and MDA-MB-468) was seeded at different concentrations (1000 to 16000 cells) per 96-well, as previously described. Cell viability was measured daily (day 0 [plating day] to day 4) using 0.2 mg/ml resazurin solution prepared from resazurin sodium salt (Fisher Scientific) dissolved in sterile 1xPBS (ThermoFisher Scientific). Before use, the resazurin solution was brought to RT before 10 µl (10% of cell medium volume) was added to each 96-well and incubated for 4h at 37°C. The absorbance was measured with a 560 nm excitation filter and a 615 nm emission filter in a Wallac 1420 VICTOR2™ microplate reader (Perkin Elmer). The slope of the curve was used to determine the optimal seeding density, i.e., the highest seeding density with linear growth between days 1 and 3.

[4] = system: MCF-7 cells; experiment: as above; set-up: species or system human; AUC: scale not given here; conditions: MCF-7; for AUC: area under the dose response curve, 24 h; for GRmax: drug efficacy at highest tested dose (<0 cytotoxic, 0 cytostatic, >0 partial growth inhibition)
Procedure: as §5, §6

[5] = system: BT-549 cells; experiment: as above; set-up: species or system human; AUC: scale not given here; conditions: BT-549; for AUC: area under the dose response curve, 24 h; for GRmax: drug efficacy at highest tested dose (<0 cytotoxic, 0 cytostatic, >0 partial growth inhibition)
Procedure: as §5, §6

[6] = system: MDA-MB-453 cells; experiment: as above; set-up: species or system human; AUC: scale not given here; conditions: MDA-MB-453; for AUC: area under the dose response curve, 24 h; for GRmax: drug efficacy at highest tested dose (<0 cytotoxic, 0 cytostatic, >0 partial growth inhibition)
Procedure: as §5, §6

[7] = system: HCC38 cells; experiment: as above; set-up: species or system human; AUC: scale not given here; conditions: HCC38; for AUC: area under the dose response curve, 24 h; for GRmax: drug efficacy at highest tested dose (<0 cytotoxic, 0 cytostatic, >0 partial growth inhibition)
Procedure: as §5, §6

[8] = system: HCC70 cells; experiment: as above; set-up: species or system human; AUC: scale not given here; conditions: HCC70; for AUC: area under the dose response curve, 24 h; for GRmax: drug efficacy at highest tested dose (<0 cytotoxic, 0 cytostatic, >0 partial growth inhibition)
Procedure: as §5, §6

[9] = system: MDA-MB-468 cells; experiment: as above; set-up: species or system human; AUC: scale not given here; conditions: MDA-MB-468; for AUC: area under the dose response curve, 24 h; for GRmax: drug efficacy at highest tested dose (<0 cytotoxic, 0 cytostatic, >0 partial growth inhibition)
Procedure: as §5, §6

[10] = system: MCF-10A cells; experiment: as above; set-up: species or system human; AUC: scale not given here; conditions: for AUC: area under the dose response curve, 24 h; for GRmax: drug efficacy at highest tested dose (<0 cytotoxic, 0 cytostatic, >0 partial growth inhibition)
Procedure: as §5, §6

[11] = system: HCC1806 cells; experiment: as above; set-up: species or system human; AUC: scale not given here; conditions: HCC1806; for AUC: area under the dose response curve, 24 h; for GRmax: drug efficacy at highest tested dose (<0 cytotoxic, 0 cytostatic, >0 partial growth inhibition)
Procedure: as §5, §6

Row | Compound | cytotoxic effect at the highest dose [1] | AUC [2] | GRmax [2] | AUC [3] | GRmax [3] | AUC [4] | GRmax [4] | AUC [5] | GRmax [5] | AUC [6] | GRmax [6] | AUC [7] | GRmax [7] | AUC [8] | GRmax [8] | AUC [9] | GRmax [9] | AUC [10] | GRmax [10] | AUC [11] | also measured
1 | CCCc1ccc(OCC(=O)N(Cc2nc(-c3cccnc3)no2)C(C)C)cc1 [PI-1840] | lowest cytotoxic effects | 1.0 | 1.0 | 1.0 | 1.0 | 1.0 | 0.97 | 0.99 | 1.0 | 1.0 | 0.93 | 1.0 | 1.0 | 1.0 | 1.0 | 0.98 | 0.96 | 1.0 | 1.0 | 1.0 | GRmax [11]: 0.98
2 | O=[N+]([O-])c1ccc(S(=O)(=O)N2CCN(c3ccnc4cc(Cl)ccc34)CC2)c([N+](=O)[O-])c1 [VR-23] | lowest cytotoxic effects | 1.0 | 0.95 | 1.0 | 1.0 | 0.98 | 0.82 | 0.98 | 0.85 | 0.99 | 0.40 | 1.0 | 0.95 | 0.98 | 0.82 | 0.97 | 0.74 | 1.0 | 1.0 | 1.0 | IC50 ([4]; 24 h drug treatment, read-out: IC50): 6 µM; GRmax [11]: 0.93
